Patent US9914869B2, “System and method for inhibiting scale formation in oil wells” (GLOBAL GREEN PRODUCTS LLC, priority 2012, dated 2018)

Assay: Scale inhibitor comparison: static bottle test (barium sulfate) and dynamic tube block test (calcium carbonate)
Settings: barium sulfate / calcium carbonate scale inhibition; table does not say which scale
Description: These types of chemistries may be used as a comparison when evaluating one or more new scale inhibitors, such as the various aspartic acid based polymers.

Molecule	Approximate effective Concentration
O=P(O)(O)CN(CCCCCCN(CP(=O)(O)O)CP(=O)(O)O)CCCCCCN(CP(=O)(O)O)CP(=O)(O)O [BHMT Phosphonate]	2 ppm
diethylenetriamine (DETA) phosphonates [DETA Phosphonate]	2 ppm
